# In patent publication US12624057B2, “Bisphosphonate quinolone conjugates and uses thereof” (BIOVINC, LLC, priority 2016, dated 2026):
# Entries after “also recorded” stand apart in the source; their conditions may differ.
# Tests used:
# [1] = Hydroxyapatite (HA) binding assay, spectroscopic analysis of supernatant; format: physicochemical; conditions: supernatant at 0 hr versus 24 hrs, TSB medium
# Method: Solutions containing BP-ciprofloxacin and HA spherules were introduced to wells of 24-well plate. […] Plates were shaken automatically in the spectrometer prior to assessment. Next, plates were left for 24 h/37° C./shaking. After 24 hours, absorbance was measured once again. To assess the relative concentration of the conjugate at 0 hr and 24 hrs, values of absorbance taken in the beginning and at the end of experiment were compared.
# Spectroscopic analysis of 6 and 11 in Tryptic Soy Broth (TSB) microbiological media with the addition of HA spherules: Various conjugate concentrations were introduced to HA powder (spherules) suspended in TSB microbiological medium. Solutions containing BP-ciprofloxacin an HA spherules were introduced to wells of a 24-well plate. […] Plates were shaken automatically in the spectrometer prior to assessment. Next, plates were left for 24 hrs/37° C./shaking. After 24 hrs, absorbance was measured once again. To assess the relative concentration of the conjugate at 0 hr and 24 hrs, values of absorbance taken in the beginning and at the end of experiment were compared. The excitation slit, emission slit, integration time, and increment were optimized based on the concentration of samples.
# [2] = system: S. aureus strain ATCC-6538 (MSSA) and clinical MRSA strain MR4-CIPS; test: Time-kill assay (CLSI); format: cell-based, Staphylococcus aureus; conditions: for time-kill profile (in words): 1× and ½× MIC, 24 hrs
# Method: Time-kill assay for BP-ciprofloxacin conjugate against S. aureus strain ATCC-6538 (MSSA) and clinical MRSA strain MR4-CIPS: This experiment was performed in the same manner as described previously under the subheading: “Evaluation of MIC of tested compounds against planktonic forms of clinical staphylococcal strains analyzed”, but absorbance assays (at 580 nm wavelength) were taken in hour: 0, 1, 2, 4, 8, 16, 24.
# [3] = system: biofilms of S. aureus strain ATCC-6538; test: Preformed biofilms on polystyrene, S. aureus; format: cell-based, Staphylococcus aureus
# Method: (§1) Antimicrobial susceptibility testing of BP-ciprofloxacin against preformed biofilms of S. aureus strain ATCC-6538 and P. aeruginosa strain ATCC-15442: Strains cultured on appropriate agar plates (Columbia agar plate for S. aureus; MacConkey agar plate for P. aeruginosa) were transferred to liquid microbiological media and incubated for 24 h/37° C. under aerobic conditions. After incubation, strains were diluted to the density of 1 MF. The microbial dilutions were introduced to wells of 24-well plates containing HA discs as a substrate, or simply to polystyrene wells where the bottom surface of the wells served as the substrate for biofilm development. Strains were incubated at 37° C. for 4 hrs. Next, the microbe-containing solutions were removed from the wells. The surfaces, HA discs and polystyrene plates, were gently rinsed to leave adhered cells and to remove planktonic or loosely-bound microbes. Surfaces prepared in this manner were immersed in fresh TSB medium containing 0.24-125 mg/L of BP-ciprofloxacin conjugate. After 24 hrs of incubation at 37° C. the surfaces were rinsed using physiological saline solution and transferred to 1 mL of 0.5% saponin (Sigma-Aldrich, St Louis, MO). The surfaces were vortex-mixed vigorously for 1 minute to detach cells. Subsequently, all microbial suspensions were diluted 10 to 10^9 times. Each dilution ([…]) was cultured on the appropriate stable medium (MacConkey, Columbia for P. aeruginosa and S. aureus, respectively) and incubated at 37-C for 24 hours. After this time, the microbial colonies were counted and the number of cells forming biofilm was assessed. […]
# (§2) Antimicrobial susceptibility testing of 6 against preformed biofilms of S. aureus strain ATCC-6538 and P. aeruginosa strain ATCC-15442: Strains cultured on appropriate agar plates (Columbia agar plate for S. aureus; MacConkey agar plate for P. aeruginosa) were transferred to liquid microbiological media and incubated for 24 hrs/37° C. under aerobic conditions. […] After this time, the microbial colonies were counted and the number of cells forming biofilm was assessed. […]
# [4] = system: biofilms of P. aeruginosa strain ATCC-15442; test: Preformed biofilms on polystyrene, P. aeruginosa; format: cell-based, Pseudomonas aeruginosa; conditions: polystyrene substrate, tested range of concentrations
# Method: as §1, §2
# [5] = system: biofilms of Aggregatibacter actinomycetemcomitans grown on HA; test: Aa biofilms grown on HA; format: cell-based
# [6] = system: Aggregatibacter actinomycetemcomitans biofilms on titanium implants; test: Rat jawbone peri-implant osteomyelitis model, second animal experiment; conditions: for reduction of mean CFU/gram of tissue versus control (in words): single high dose 10 mg/kg, 10 mg/kg
smiles,measurement,setting,value
"O=C(O)c1cn(C2CC2)c2cc(N3CCN(C(=O)Oc4ccc(CC(P(=O)(O)O)P(=O)(O)O)cc4)CC3)c(F)cc2c1=O [Compound 6, 1-cyclopropyl-7-(4-((4-(2,2-diphosphonoethyl)phenoxy)carbonyl)piperazin-1-yl)-6-fluoro-4-oxo-1,4-dihydroquinoline-3-carboxylic acid]",adsorption to hydroxyapatite (HA),[1],significant adsorption and retention of the conjugate by HA; also recorded: effective adsorption and retention to HA spherules
same,adsorption to hydroxyapatite (HA),[1]; listed as BCC,taken up by the HA beads; also recorded: confirms adsorption of conjugate to HA
same,adsorption to hydroxyapatite (HA),[1]; listed as BP-ciprofloxacin,significant adsorption and retention of the conjugate by HA
same,time-kill profile (in words),[2],sustained bactericidal activity over 24 hrs
same,time-kill profile (in words),[2]; listed as BP-ciprofloxacin,strong bactericidal activity at 1 hr and up to 24 hrs
same,time to bactericidal activity / evident prevention of growth,[2]; at half the MIC,2 h
same,growth inhibition,"[2]; at half the MIC, up to/after 24 hrs, versus controls",50%
same,time to bactericidal activity / evident prevention of growth,"[2]; at half the MIC, listed as conjugate",≤ 1 h
same,time to bactericidal activity,[2]; at the established MIC,≤ 1 h
same,prevention of bacterial growth,"[2]; at the established MIC, up to 24 hrs",100%
same,minimal biofilm inhibitory concentration (MBIC50),[3]; polystyrene substrate (Example 1),15.6 to 31.2 µg/mL
same,minimal biofilm inhibitory concentration (MBIC50),[3]; polystyrene substrate (Example 5),15.6 to 31.2 µg/mL
same,MBIC90,"[3]; polystyrene substrate, tested range of concentrations",no MBIC90 was observed for either pathogen
same,MBIC50,[4],No MBIC50 was observed
same,MBIC90,[4],no MBIC90 was observed for either pathogen
same,MBIC50,[4]; listed as BP-ciprofloxacin,no MBIC^50 was observed
same,activity against Aa biofilm on HA (in words),[5],effective antimicrobial activity
same,concentration with effective antimicrobial profile,[5]; strain D7S-5 grown on HA,> 15 µg/mL
same,peri-implant inflammation at resection (in words),[6]; majority of animals in the treatment groups,non-inflamed peri-implant tissues
same,significance of CFU reduction versus control (in words),[6]; multiple low dose 0.3 mg/kg 3×/week,not for the multiple low dose group
same,kill of Aa in peri-implant tissue,[6]; single dose 10 mg/kg,approximately 6 log units
same,reduction of mean CFU/gram of tissue versus control (in words),[6],revealed significance for the single high dose of 6 treatment as compared to the control; also recorded: greatest CFU reduction and efficacy was observed at the single high dose; also recorded: greatest efficacy was observed at a single high dose
same,reduction of mean CFU/gram of tissue versus control (in words),[6]; listed as BCC,greatest efficacy and was highly statistically significant; also recorded: greatest efficacy was again observed at a single high dose
